According to the NIST ThermoML archive (doi:10.1016/j.tca.2017.09.003):
Numbers after ± are expanded uncertainties.

Settings: Crystal; DTA

Normal melting temperature: 169.00 ± 2 °C
SMILES: Cc1oncc1C(=O)Nc1ccc(C(F)(F)F)cc1
